The text below walks through data of ChEMBL document CHEMBL1142372, “Design, synthesis, and structure-activity relationship studies of 4-quinolinyl- and 9-acrydinylhydrazones as potent antimalarial agents” (J Med Chem, 2008).

Structures are written as SMILES. pEC50, pIC50: −log10 of the molar value. A value given as a limit tells only on which side of the number the result lay.

Assay [1] deals with Plasmodium falciparum. As to the kind of experiment: Antiplasmodial activity against chloroquine-sensitive Plasmodium falciparum 3D7 by [3H]hypoxanthine incorporation. The assay is classed as functional, organism-based.
For assay [2], the system named is Plasmodium falciparum. As to the kind of experiment: Antiplasmodial activity against chloroquine-resistant Plasmodium falciparum W2 by [3H]hypoxanthine incorporation. In kind it is functional, organism-based.
Assay [3] concerns Plasmodium falciparum. Kind of assay: Antiplasmodial activity against chloroquine-sensitive Plasmodium falciparum D10 by [3H]hypoxanthine incorporation. The assay is classed as functional, organism-based.
A further assay relates to KB. As to the kind of experiment: Cytotoxicity against human KB cells. The assay is classed as functional. As to conditions: read-out: ED50 (the source's name).
Assay [4] deals with Plasmodium falciparum. As to the kind of experiment: Antiplasmodial activity against chloroquine-resistant Plasmodium falciparum K1 by [3H]hypoxanthine incorporation. In kind it is functional, organism-based.

As to `Cn1cncc1/C=N/Nc1ccnc2cc(Cl)ccc12`, the negative logarithm of the IC50 (pIC50) (in general, the negative decadic logarithm of the IC50, by convention in mol/L) in the assay on Plasmodium falciparum [1] is 7.31; with Plasmodium falciparum [2], 6.60; in the assay with Plasmodium falciparum [3], 6.76; with Plasmodium falciparum [4] it was 6.41. Besides, the pEC50 with KB is 4.13.

`CCN(CC)c1ccc(/C=N/Nc2c3c(nc4ccccc24)CCCC3)cc1`: the pIC50 is 5.97 in the assay with Plasmodium falciparum [1], 5.83 in the assay on Plasmodium falciparum [2] and 6.01 in the assay with Plasmodium falciparum [3].

With `Cc1ccc(S(=O)(=O)NNc2ccnc3cc(Cl)ccc23)cc1`, the pIC50 was 5.52 in the assay on Plasmodium falciparum [1], 5.30 in the assay on Plasmodium falciparum [2], 5.23 with Plasmodium falciparum [3] and 5.07 with Plasmodium falciparum [4].

Consider `Cn1ccnc1/C=N/Nc1ccnc2cc(Cl)ccc12`, for which the negative-log IC50 (pIC50) was 7.21 in the assay on Plasmodium falciparum [1], 7.06 in the assay on Plasmodium falciparum [2], 6.71 in the assay with Plasmodium falciparum [3] and 6.57 in the assay with Plasmodium falciparum [4]. The pEC50 in the assay with KB is 4.77.

Consider `CCN(CC)c1ccc(/C=N/Nc2ccnc3cc(Cl)ccc23)cc1`, for which the figures for the negative logarithm of the IC50 (pIC50) with Plasmodium falciparum [1], with Plasmodium falciparum [2] and with Plasmodium falciparum [3] were 6.52, 6.60 and 6.76, respectively.

For `Cc1cccc(/C=N/Nc2cc(C)nc3cc(Cl)ccc23)n1`, the pIC50 is 5.88 with Plasmodium falciparum [2] and 5.93 with Plasmodium falciparum [3].

In the case of `Cc1cccc(/C=N/Nc2ccnc3cc(Cl)ccc23)n1`, the pIC50 in the assay on Plasmodium falciparum [2] was 6.12; in the assay on Plasmodium falciparum [3] it was less than 5.52.

As to `O=C(NNc1ccnc2cc(Cl)ccc12)c1c[nH]cn1`, the pIC50 in the assay on Plasmodium falciparum [1] is 5.05; in the assay on Plasmodium falciparum [2], less than 5.00; in the assay on Plasmodium falciparum [3], less than 5.00; with Plasmodium falciparum [4] it was less than 5.00.

`Clc1ccc2c(N/N=C/c3ccncc3)ccnc2c1`: the pIC50 was 6.20 in the assay with Plasmodium falciparum [2] and 6.24 in the assay on Plasmodium falciparum [3].

With `Clc1ccc2c(N/N=C/c3ccc4c(c3)OCO4)ccnc2c1`, the negative-log IC50 (pIC50) in the assay with Plasmodium falciparum [1] was 6.40; in the assay on Plasmodium falciparum [2] it was 6.69; in the assay on Plasmodium falciparum [3], 6.74; with Plasmodium falciparum [4] it was 7.51.

As for `Clc1ccc2c(N/N=C/c3cccnc3)ccnc2c1`, the pIC50 in the assay on Plasmodium falciparum [2] was 6.09; in the assay with Plasmodium falciparum [3] it was 6.22.

For the compound `Clc1ccc2c(N/N=C/c3cccs3)ccnc2c1`, the negative logarithm of the IC50 (pIC50) in the assay with Plasmodium falciparum [1] is 6.78; with Plasmodium falciparum [2], 6.07; in the assay on Plasmodium falciparum [3], 6.30; with Plasmodium falciparum [4] it was 6.24. Besides, the pEC50 with KB is 4.98.

With `CCN(CC)Cc1ccc(/C=N/Nc2ccnc3cc(Cl)ccc23)cc1`, the negative-log IC50 (pIC50) is 8.57 in the assay with Plasmodium falciparum [1], 7.24 in the assay with Plasmodium falciparum [2], 7.32 in the assay on Plasmodium falciparum [3] and 7.57 in the assay on Plasmodium falciparum [4].

Turning to `C(=N\Nc1c2c(nc3ccccc13)CCCC2)/c1ccc2c(c1)OCO2`, the pIC50 in the assay on Plasmodium falciparum [2] is 6.03; in the assay with Plasmodium falciparum [3] it was 6.21.

For `CN(C)c1ccc(/C=N/Nc2ccnc3cc(Cl)ccc23)cc1`, the negative-log IC50 (pIC50) in the assay with Plasmodium falciparum [1] is 6.51; in the assay on Plasmodium falciparum [2], 6.42; in the assay with Plasmodium falciparum [3], 6.49; in the assay with Plasmodium falciparum [4], 5.94.

With `COc1ccc2nccc(N/N=C/c3ccc(CN4CCCC4)cc3)c2c1`, the pIC50 with Plasmodium falciparum [1] is 7.78; in the assay with Plasmodium falciparum [2] it was 7.00; in the assay with Plasmodium falciparum [3], 7.61; with Plasmodium falciparum [4], 7.06.

In the case of `COc1ccc(/C=N/Nc2c3c(nc4ccccc24)CCCC3)cc1`, the pIC50 is 5.63 in the assay with Plasmodium falciparum [2] and 6.03 with Plasmodium falciparum [3].

On to `Clc1ccc2c(N/N=C/c3ccc(N4CCCC4)cc3)ccnc2c1`, for which the negative logarithm of the IC50 (pIC50) is 6.07 with Plasmodium falciparum [1], 6.72 in the assay on Plasmodium falciparum [2], 6.72 in the assay with Plasmodium falciparum [3] and 6.37 in the assay on Plasmodium falciparum [4].

As for `COc1ccc2nccc(N/N=C/c3ccc4ccccc4n3)c2c1`, the negative logarithm of the IC50 (pIC50) was 6.90 in the assay on Plasmodium falciparum [1], 7.02 in the assay with Plasmodium falciparum [2], 7.14 in the assay on Plasmodium falciparum [3] and 6.80 in the assay on Plasmodium falciparum [4].

As for `COc1cc2ccccc2cc1/C=N/Nc1ccnc2cc(Cl)ccc12`, the negative logarithm of the IC50 (pIC50) with Plasmodium falciparum [1] is 7.50; in the assay on Plasmodium falciparum [2], 6.77; in the assay on Plasmodium falciparum [3], 6.84; in the assay with Plasmodium falciparum [4], 7.20.

Regarding `COc1ccc2nccc(N/N=C/c3ccc(N4CCCC4)cc3)c2c1`, the pIC50 was 6.39 in the assay on Plasmodium falciparum [1], 6.73 with Plasmodium falciparum [2], 6.94 in the assay with Plasmodium falciparum [3] and 6.34 with Plasmodium falciparum [4].

In the case of `COc1ccc2nc(C)cc(N/N=C/c3ccc4c(c3)OCO4)c2c1`, the pIC50 is 6.29 in the assay on Plasmodium falciparum [1], 6.74 in the assay with Plasmodium falciparum [2], 6.88 in the assay on Plasmodium falciparum [3] and 6.83 in the assay with Plasmodium falciparum [4].

Consider `O=C(NNc1ccnc2cc(Cl)ccc12)c1ncc[nH]1`, for which the negative logarithm of the IC50 (pIC50) is 5.26 with Plasmodium falciparum [1], less than 5.00 in the assay on Plasmodium falciparum [2], 5.19 in the assay with Plasmodium falciparum [3] and less than 5.00 with Plasmodium falciparum [4].

`Cc1noc(C)c1/C=N/Nc1ccnc2cc(Cl)ccc12`: the negative-log IC50 (pIC50) in the assay with Plasmodium falciparum [1] was 6.90; in the assay on Plasmodium falciparum [2], 6.29; in the assay with Plasmodium falciparum [3] it was 6.46; in the assay on Plasmodium falciparum [4], 5.67. Further, the pEC50 in the assay with KB was 3.77.

In the case of `COc1ccc2c(N/N=C/c3ccc4ccccc4n3)ccnc2c1`, the pIC50 in the assay with Plasmodium falciparum [2] is 6.85; in the assay on Plasmodium falciparum [3] it was 6.97; in the assay with Plasmodium falciparum [4], 6.67.

`CCOc1ccc2c(N/N=C/c3ccc(OC)cc3)cc(C)nc2c1`: the pIC50 was 6.09 with Plasmodium falciparum [1], 6.63 in the assay with Plasmodium falciparum [2], 6.67 with Plasmodium falciparum [3] and 6.27 with Plasmodium falciparum [4].

For `C(=N\Nc1ccnc2cc3c(cc12)OCO3)/c1ccc(CN2CCCC2)cc1`, the negative-log IC50 (pIC50) in the assay on Plasmodium falciparum [1] was 7.57; with Plasmodium falciparum [2] it was 7.33; with Plasmodium falciparum [3], 7.45; with Plasmodium falciparum [4] it was 7.24.

For the compound `COc1ccc2nccc(N/N=C/c3ccc4c(c3)OCO4)c2c1`, the negative-log IC50 (pIC50) is 6.71 in the assay on Plasmodium falciparum [2] and 6.88 with Plasmodium falciparum [3].

`Clc1ccc2c(N/N=C/c3cnc[nH]3)ccnc2c1`: the pIC50 with Plasmodium falciparum [1] is 6.82; in the assay on Plasmodium falciparum [2] it was 6.85; in the assay on Plasmodium falciparum [3] it was 6.34; with Plasmodium falciparum [4], 6.20. In addition, in the assay on KB, the pEC50 is 4.54.

Consider `COc1cccc(/C=N/Nc2cc(C)nc3cc4c(cc23)OCO4)c1`, for which the figures for the pIC50 with Plasmodium falciparum [1], in the assay on Plasmodium falciparum [2] and with Plasmodium falciparum [3] were 5.30, 6.64 and 6.71, respectively.

In the case of `COc1ccc(/C=N/Nc2ccnc3c(OC)cccc23)cc1`, the negative-log IC50 (pIC50) was 6.49 in the assay on Plasmodium falciparum [1], 6.04 in the assay with Plasmodium falciparum [2], 6.15 in the assay on Plasmodium falciparum [3] and 6.11 in the assay on Plasmodium falciparum [4].

For `COc1ccc(/C=N/Nc2c3c(nc4cc(Cl)ccc24)CCCC3)cc1`, the pIC50 is 6.03 with Plasmodium falciparum [1], 5.88 in the assay on Plasmodium falciparum [2], 6.12 in the assay on Plasmodium falciparum [3] and 5.58 in the assay on Plasmodium falciparum [4].

For `CCN(CC)c1ccc(/C=N/Nc2ccnc3c(OC)cccc23)cc1`, the pIC50 in the assay with Plasmodium falciparum [1] was 6.69; in the assay with Plasmodium falciparum [2] it was 6.10; with Plasmodium falciparum [3] it was 6.35; in the assay on Plasmodium falciparum [4], 6.90.

Consider `CCN(CC)c1ccc(/C=N/Nc2ccnc3ccc(OC)cc23)cc1`, for which the negative-log IC50 (pIC50) with Plasmodium falciparum [1] was 7.64; in the assay on Plasmodium falciparum [2], 6.78; with Plasmodium falciparum [3] it was 6.85; with Plasmodium falciparum [4], 6.76.

In the case of `O=S(=O)(NNc1ccnc2cc(Cl)ccc12)c1cccc2ccccc12`, the pIC50 in the assay with Plasmodium falciparum [1] was 5.67; in the assay on Plasmodium falciparum [2] it was 5.60; in the assay on Plasmodium falciparum [3], 5.37; with Plasmodium falciparum [4], 6.22.

For the compound `COc1ccc(/C=N/Nc2cc(C)nc3ccc(OC)cc23)cc1`, the pIC50 in the assay with Plasmodium falciparum [1] is 7.51; in the assay on Plasmodium falciparum [2] it was 6.82; in the assay with Plasmodium falciparum [3], 6.99; with Plasmodium falciparum [4] it was 7.21.

Consider `COc1cccc2c(N/N=C/c3ccc4ccccc4n3)cc(C)nc12`, for which the pIC50 with Plasmodium falciparum [1] was 6.10; in the assay with Plasmodium falciparum [2] it was 6.49; in the assay on Plasmodium falciparum [3], 6.39; in the assay on Plasmodium falciparum [4] it was 6.93.

`Cc1cc(N/N=C/c2ccc3c(c2)OCO3)c2ccc(Cl)cc2n1`: the pIC50 is 6.55 with Plasmodium falciparum [2] and 6.91 in the assay on Plasmodium falciparum [3].
